# Patent publication US20080009418A1, “Selective Inhibitors” (Alchemia LTD., priority 2004, published 2008)
# Experiments:
# [1] = biological target: T1, Human μ-opioid (MOP) (Homo sapiens, UniProt P35372); test: Radioligand binding, human μ-opioid (MOP) membranes, FlashPlate, [3H]-Naloxone; conditions: compound at 10 μM; for A7 radioligand binding inhibition: human μ-opioid (MOP) membranes
# T1 construct: purchased Perkin Elmer Biosignal
# Outline: (§1)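 Cloned human receptor membranes were coated onto FlashPlate wells and incubated with radioligand and compound (added from a 0.5 mM DMSO daughter plate) for 1 hour at room temperature in the dark. Scintillation counting gave percent inhibition, with DMSO defining total and reference ligand defining non-specific binding.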
# [2] = biological target: T2, Human Melanocortin (MC4) (Homo sapiens, UniProt P32245); test: Radioligand binding, human melanocortin MC4 membranes, FlashPlate, [125I]-NDP-αMSH; conditions: compound at 10 μM; for A4 radioligand binding inhibition: human melanocortin MC4 membranes
# T2 construct: purchased Perkin Elmer Biosignal
# Outline: as §1
# [3] = biological target: T3, Human δ-opioid (DOP) (Homo sapiens, UniProt P41143); test: Radioligand binding, human δ-opioid (DOP) membranes, FlashPlate, [3H]-Bremazocine; conditions: compound at 10 μM; for A1 radioligand binding inhibition: human δ-opioid (DOP) membranes
# T3 construct: purchased Perkin Elmer Biosignal
# Outline: as §1
# [4] = biological target: T4, Human opioid (ORL1) (Homo sapiens, UniProt P41146); test: Radioligand binding, human opioid ORL1 membranes, FlashPlate, [125I]-Nociceptin; conditions: compound at 10 μM; for A10 radioligand binding inhibition: human ORL1 membranes
# T4 construct: purchased Perkin Elmer Biosignal
# Outline: as §1
# [5] = biological target: T5, Human melanin-concentrating hormone (MCH1) (Homo sapiens, UniProt Q99705); test: Radioligand binding, human melanin-concentrating hormone MCH1 membranes, FlashPlate, [125I]-S36057; conditions: compound at 10 μM; for A6 radioligand binding inhibition: human MCH1 membranes
# T5 construct: purchased Perkin Elmer Biosignal
# Outline: as §1
# [6] = biological target: T6, Human Melanocortin (MC3) (Homo sapiens, UniProt P41968); test: Radioligand binding, human melanocortin MC3 membranes, FlashPlate, [125I]-NDP-αMSH; conditions: compound at 10 μM; for A3 radioligand binding inhibition: human melanocortin MC3 membranes
# T6 construct: purchased Perkin Elmer Biosignal
# Outline: as §1
# [7] = biological target: T7, Human neuropeptide Y (NPY-Y1) (Homo sapiens, UniProt P25929); test: Radioligand binding, human neuropeptide Y NPY-Y1 membranes, FlashPlate, [125I]-PYY; conditions: compound at 10 μM; for A9 radioligand binding inhibition: human NPY-Y1 membranes
# T7 construct: purchased Perkin Elmer Biosignal
# T7 sequence (P25929 1-384): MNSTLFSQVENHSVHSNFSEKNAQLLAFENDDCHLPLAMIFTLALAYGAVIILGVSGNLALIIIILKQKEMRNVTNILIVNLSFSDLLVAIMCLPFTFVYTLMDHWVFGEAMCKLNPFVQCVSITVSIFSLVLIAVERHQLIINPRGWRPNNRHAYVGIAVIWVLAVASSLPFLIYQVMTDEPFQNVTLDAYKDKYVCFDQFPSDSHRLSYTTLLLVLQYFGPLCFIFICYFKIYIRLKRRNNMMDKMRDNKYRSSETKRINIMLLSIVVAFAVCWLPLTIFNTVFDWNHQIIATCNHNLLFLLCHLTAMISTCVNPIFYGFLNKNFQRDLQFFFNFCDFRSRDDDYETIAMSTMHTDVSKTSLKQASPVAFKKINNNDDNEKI
# Outline: as §1
# [8] = biological target: T8, Human neurokinin (NK1) (Homo sapiens, UniProt P25103); test: Radioligand binding, human neurokinin NK1 membranes, filtration, [125I]-Substance P; conditions: compound at 10 μM; for A8 radioligand binding inhibition: human neurokinin NK1 membranes
# T8 construct: purchased Perkin Elmer Biosignal
# Outline: (§2)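 Filtration binding on cloned human receptor membranes (1 Unit/well), [125I]-Substance P for NK1 and [3H]-Diprenorphine for KOP, 1 h at room temperature. Filters PEI-presoaked, washed with cold 50 mM Tris-HCl pH 7.4, counted by scintillation; percent inhibition calculated, reference ligand defining non-specific binding.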
# [9] = biological target: T9, Human κ-Opioid (KOP) (Homo sapiens, UniProt P41145); test: Radioligand binding, human κ-opioid (KOP) membranes, filtration, [3H]-Diprenorphine; conditions: compound at 10 μM; for A2 radioligand binding inhibition: human κ-opioid (KOP) membranes
# T9 construct: purchased Perkin Elmer Biosignal
# Outline: as §2
# [10] = biological target: T10, Human melanocortin (MC5) (Homo sapiens, UniProt P33032); test: Radioligand binding, human melanocortin MC5 membranes, FlashPlate, [125I]-NDP-αMSH; conditions: compound at 10 μM; for A5 radioligand binding inhibition: human melanocortin MC5 membranes
# T10 construct: purchased Perkin Elmer Biosignal
# Outline: as §1
# [11] = biological target: T11, Mouse urotensin (mUR2) (Mus musculus, UniProt Q8VIH9); test: Radioligand binding, mouse urotensin mUR2 membranes, FlashPlate, [125I]-Urotensin II; conditions: compound at 10 μM; for A11 radioligand binding inhibition: mouse urotensin mUR2 membranes
# T11 construct: purchased Perkin Elmer Biosignal
# T11 sequence (Q8VIH9 1-385): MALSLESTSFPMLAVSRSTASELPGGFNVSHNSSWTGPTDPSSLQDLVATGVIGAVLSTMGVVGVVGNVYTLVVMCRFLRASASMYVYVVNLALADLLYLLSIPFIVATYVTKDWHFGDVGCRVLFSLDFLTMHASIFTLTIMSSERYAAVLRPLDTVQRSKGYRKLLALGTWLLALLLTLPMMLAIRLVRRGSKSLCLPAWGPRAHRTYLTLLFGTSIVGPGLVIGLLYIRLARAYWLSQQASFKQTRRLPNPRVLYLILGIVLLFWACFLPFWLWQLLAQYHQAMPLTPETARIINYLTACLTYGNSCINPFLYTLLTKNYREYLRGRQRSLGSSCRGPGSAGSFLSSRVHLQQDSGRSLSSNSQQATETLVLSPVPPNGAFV
# Outline: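 Cloned mouse urotensin (mUR2) receptor membranes from Perkin Elmer Biosignal were immobilized in FlashPlate microplates using a proprietary coating. Each well got 19.5 μl buffer, then 0.5 μl of DMSO, reference ligand, or compound. Adding 5 μl of [125I]-Urotensin II, diluted to 5× final concentration in binding buffer, started binding. Plates were sealed with TopSeal-A and incubated 1 hour at room temperature in the dark. Wells were counted for 30 seconds each on a TopCount after a 60-second delay, and percentage inhibition was calculated.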
# T5 sequence (Q99705 whole entry): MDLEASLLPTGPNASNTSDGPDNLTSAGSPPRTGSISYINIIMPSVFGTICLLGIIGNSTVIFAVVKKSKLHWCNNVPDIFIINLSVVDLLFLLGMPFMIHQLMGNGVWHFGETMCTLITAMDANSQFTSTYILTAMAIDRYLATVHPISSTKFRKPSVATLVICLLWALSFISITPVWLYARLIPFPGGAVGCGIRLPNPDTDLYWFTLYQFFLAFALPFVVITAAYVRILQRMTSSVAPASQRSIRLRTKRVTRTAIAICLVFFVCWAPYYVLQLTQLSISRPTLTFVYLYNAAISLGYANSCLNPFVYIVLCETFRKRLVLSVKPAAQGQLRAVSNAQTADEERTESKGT
# T8 sequence (P25103 whole entry): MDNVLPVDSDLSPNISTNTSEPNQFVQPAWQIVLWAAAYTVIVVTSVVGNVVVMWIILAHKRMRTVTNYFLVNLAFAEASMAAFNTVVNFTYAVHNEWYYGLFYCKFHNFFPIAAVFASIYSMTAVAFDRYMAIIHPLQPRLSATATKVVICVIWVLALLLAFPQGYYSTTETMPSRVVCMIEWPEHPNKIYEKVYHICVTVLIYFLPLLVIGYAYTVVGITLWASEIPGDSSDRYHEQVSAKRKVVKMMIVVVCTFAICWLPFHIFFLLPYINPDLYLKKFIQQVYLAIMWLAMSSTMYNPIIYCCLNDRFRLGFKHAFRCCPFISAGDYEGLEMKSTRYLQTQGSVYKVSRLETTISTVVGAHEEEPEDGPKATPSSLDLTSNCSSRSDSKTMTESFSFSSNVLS
# T2 sequence (P32245 whole entry): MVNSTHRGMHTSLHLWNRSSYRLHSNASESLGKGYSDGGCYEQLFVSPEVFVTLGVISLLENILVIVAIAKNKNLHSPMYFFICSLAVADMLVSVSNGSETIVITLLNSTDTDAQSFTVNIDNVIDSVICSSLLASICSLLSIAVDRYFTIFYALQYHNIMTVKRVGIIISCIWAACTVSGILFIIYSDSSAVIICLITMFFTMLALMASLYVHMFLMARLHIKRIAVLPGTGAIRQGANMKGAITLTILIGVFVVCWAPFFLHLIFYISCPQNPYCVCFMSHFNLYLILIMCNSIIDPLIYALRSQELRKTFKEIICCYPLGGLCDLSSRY
# T10 sequence (P33032 whole entry): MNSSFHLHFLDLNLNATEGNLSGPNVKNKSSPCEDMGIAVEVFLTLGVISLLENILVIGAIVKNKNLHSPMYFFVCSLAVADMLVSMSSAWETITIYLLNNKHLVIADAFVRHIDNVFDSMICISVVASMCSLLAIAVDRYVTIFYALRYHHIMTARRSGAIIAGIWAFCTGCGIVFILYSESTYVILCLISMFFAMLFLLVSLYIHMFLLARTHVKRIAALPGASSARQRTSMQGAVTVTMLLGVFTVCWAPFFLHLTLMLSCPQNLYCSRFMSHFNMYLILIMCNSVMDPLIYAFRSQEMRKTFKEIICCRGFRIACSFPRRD
# T1 sequence (P35372 whole entry): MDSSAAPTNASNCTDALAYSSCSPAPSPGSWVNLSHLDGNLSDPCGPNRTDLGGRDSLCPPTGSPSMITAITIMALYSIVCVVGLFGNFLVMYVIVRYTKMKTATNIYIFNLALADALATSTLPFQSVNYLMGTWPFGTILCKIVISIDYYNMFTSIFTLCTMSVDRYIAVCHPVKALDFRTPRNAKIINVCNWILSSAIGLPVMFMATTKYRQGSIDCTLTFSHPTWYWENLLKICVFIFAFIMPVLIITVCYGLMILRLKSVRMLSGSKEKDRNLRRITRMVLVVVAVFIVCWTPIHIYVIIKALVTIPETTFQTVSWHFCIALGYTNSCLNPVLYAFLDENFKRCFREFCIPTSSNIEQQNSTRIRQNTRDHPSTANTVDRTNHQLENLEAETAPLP
# T9 sequence (P41145 whole entry): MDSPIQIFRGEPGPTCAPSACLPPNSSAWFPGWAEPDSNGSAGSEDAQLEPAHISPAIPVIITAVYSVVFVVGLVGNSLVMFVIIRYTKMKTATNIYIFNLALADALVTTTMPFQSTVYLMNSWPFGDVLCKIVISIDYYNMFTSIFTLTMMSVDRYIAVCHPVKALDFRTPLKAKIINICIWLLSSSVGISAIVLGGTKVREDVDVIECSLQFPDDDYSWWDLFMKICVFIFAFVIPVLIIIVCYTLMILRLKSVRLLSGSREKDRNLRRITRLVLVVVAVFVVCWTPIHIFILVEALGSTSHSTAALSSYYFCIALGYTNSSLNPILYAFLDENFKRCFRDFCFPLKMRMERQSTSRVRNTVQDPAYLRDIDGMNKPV
# T3 sequence (P41143 whole entry): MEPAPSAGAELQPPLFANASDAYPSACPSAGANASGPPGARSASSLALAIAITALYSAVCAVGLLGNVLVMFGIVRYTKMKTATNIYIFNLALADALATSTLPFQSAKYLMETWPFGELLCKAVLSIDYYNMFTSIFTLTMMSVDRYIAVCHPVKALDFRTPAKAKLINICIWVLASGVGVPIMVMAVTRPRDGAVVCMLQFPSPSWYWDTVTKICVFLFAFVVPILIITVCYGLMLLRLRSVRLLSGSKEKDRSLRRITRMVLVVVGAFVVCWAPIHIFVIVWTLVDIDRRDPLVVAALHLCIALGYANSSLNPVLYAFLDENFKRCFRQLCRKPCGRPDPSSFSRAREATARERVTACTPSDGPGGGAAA
# T6 sequence (P41968 whole entry): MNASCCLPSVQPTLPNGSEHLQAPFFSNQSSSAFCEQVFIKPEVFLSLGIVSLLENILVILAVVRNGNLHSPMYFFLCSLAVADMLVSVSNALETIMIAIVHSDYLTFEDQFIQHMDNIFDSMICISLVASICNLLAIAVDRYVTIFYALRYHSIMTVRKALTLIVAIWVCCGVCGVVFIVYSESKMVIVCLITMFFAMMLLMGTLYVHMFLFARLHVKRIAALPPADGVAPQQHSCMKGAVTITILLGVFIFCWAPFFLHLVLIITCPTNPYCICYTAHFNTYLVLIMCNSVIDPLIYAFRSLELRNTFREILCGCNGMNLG
# T4 sequence (P41146 whole entry): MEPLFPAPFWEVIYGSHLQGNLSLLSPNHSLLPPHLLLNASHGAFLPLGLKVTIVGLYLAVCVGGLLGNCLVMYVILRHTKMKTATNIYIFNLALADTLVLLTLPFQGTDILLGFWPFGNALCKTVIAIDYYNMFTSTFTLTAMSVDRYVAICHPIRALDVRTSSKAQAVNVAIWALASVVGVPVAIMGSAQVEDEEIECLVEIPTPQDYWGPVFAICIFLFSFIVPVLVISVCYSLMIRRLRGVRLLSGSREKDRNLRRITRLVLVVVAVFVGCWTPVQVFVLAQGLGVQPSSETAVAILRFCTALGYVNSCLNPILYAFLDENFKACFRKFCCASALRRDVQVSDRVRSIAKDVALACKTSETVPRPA
SMILES,"A7: inhibition of radioligand binding, human μ-opioid (MOP) ([1]; [3H]-Naloxone)","A4: inhibition of radioligand binding, human melanocortin (MC4) ([2]; [125I]-NDP-αMSH)","A1: inhibition of radioligand binding, human δ-opioid (DOP) ([3]; [3H]-Bremazocine)","A10: inhibition of radioligand binding, human opioid (ORL1) ([4]; [125I]-Nociceptin)","A6: inhibition of radioligand binding, human melanin-concentrating hormone (MCH1) ([5]; [125I]-S36057)","A3: inhibition of radioligand binding, human melanocortin (MC3) ([6]; [125I]-NDP-αMSH)","A9: inhibition of radioligand binding, human neuropeptide Y (NPY-Y1) ([7]; [125I]-PYY)","A8: inhibition of radioligand binding, human neurokinin (NK1) ([8]; [125I]-Substance P)","A2: inhibition of radioligand binding, human κ-opioid (KOP) ([9]; [3H]-Diprenorphine)","A5: inhibition of radioligand binding, human melanocortin (MC5) ([10]; [125I]-NDP-αMSH)","A11: inhibition of radioligand binding, mouse urotensin (mUR2) ([11]; [125I]-Urotensin II)",A7 radioligand binding inhibition [1],A4 radioligand binding inhibition [2],A1 radioligand binding inhibition [3],A10 radioligand binding inhibition [4],A6 radioligand binding inhibition [5],A3 radioligand binding inhibition [6],A9 radioligand binding inhibition [7],A8 radioligand binding inhibition [8],A2 radioligand binding inhibition [9],other results
N=C(N)NCC(=O)N[C@H]1C(OCc2ccc(Cl)cc2)O[C@H](COCc2ccc(Cl)cc2)[C@@H](O)[C@@H]1OCc1ccc(Cl)cc1 (stereo partly shown) [compound 511],+ (“+” indicates greater than 50% inhibition at 10 μM),+ (“+” indicates greater than 50% inhibition at 10 μM),− (“−” indicates less than 50% inhibition at 10 μM),+ (“+” indicates greater than 50% inhibition at 10 μM),+ (“+” indicates greater than 50% inhibition at 10 μM),+ (“+” indicates greater than 50% inhibition at 10 μM),− (“−” indicates less than 50% inhibition at 10 μM),+ (“+” indicates greater than 50% inhibition at 10 μM),− (“−” indicates less than 50% inhibition at 10 μM),+ (“+” indicates greater than 50% inhibition at 10 μM),− (“−” indicates less than 50% inhibition at 10 μM),,,,,,,,,,
CO[C@H]1[C@H](O)[C@@H](COCc2ccc(-c3ccccc3)cc2)OC(OCc2ccc3ccccc3c2)[C@@H]1NC(=O)CCCNC(=N)N (stereo partly shown) [compound 69],,,,,,,,,,,,+ (“+” indicates greater than 50% inhibition at 10 μM),+ (“+” indicates greater than 50% inhibition at 10 μM),− (“−” indicates less than 50% inhibition at 10 μM),+ (“+” indicates greater than 50% inhibition at 10 μM),+ (“+” indicates greater than 50% inhibition at 10 μM),+ (“+” indicates greater than 50% inhibition at 10 μM),− (“−” indicates less than 50% inhibition at 10 μM),+ (“+” indicates greater than 50% inhibition at 10 μM),− (“−” indicates less than 50% inhibition at 10 μM),A5 radioligand binding inhibition [10]: + (“+” indicates greater than 50% inhibition at 10 μM); A11 radioligand binding inhibition [11]: − (“−” indicates less than 50% inhibition at 10 μM)
CO[C@H]1[C@H](O)[C@@H](COCc2ccc3ccccc3c2)OC(OCc2ccc(-c3ccccc3)cc2)[C@@H]1NC(=O)CNC(=N)N (stereo partly shown) [compound 55],,,,,,,,,,,,+ (“+” indicates greater than 50% inhibition at 10 μM),+ (“+” indicates greater than 50% inhibition at 10 μM),− (“−” indicates less than 50% inhibition at 10 μM),+ (“+” indicates greater than 50% inhibition at 10 μM),+ (“+” indicates greater than 50% inhibition at 10 μM),+ (“+” indicates greater than 50% inhibition at 10 μM),− (“−” indicates less than 50% inhibition at 10 μM),+ (“+” indicates greater than 50% inhibition at 10 μM),+ (“+” indicates greater than 50% inhibition at 10 μM),A5 radioligand binding inhibition [10]: + (“+” indicates greater than 50% inhibition at 10 μM); A11 radioligand binding inhibition [11]: − (“−” indicates less than 50% inhibition at 10 μM)
CSC1OC(COCc2ccc(Cl)cc2)C(O)C(OCc2ccc3ccccc3c2)C1NC(=O)CN (stereo not shown) [compound 306],− (“−” indicates less than 50% inhibition at 10 μM),− (“−” indicates less than 50% inhibition at 10 μM),− (“−” indicates less than 50% inhibition at 10 μM),− (“−” indicates less than 50% inhibition at 10 μM),− (“−” indicates less than 50% inhibition at 10 μM),− (“−” indicates less than 50% inhibition at 10 μM),− (“−” indicates less than 50% inhibition at 10 μM),+ (“+” indicates greater than 50% inhibition at 10 μM),− (“−” indicates less than 50% inhibition at 10 μM),− (“−” indicates less than 50% inhibition at 10 μM),− (“−” indicates less than 50% inhibition at 10 μM),,,,,,,,,,
COCC1OC(OCc2ccccc2)C(NC(=O)CN)C(OCc2ccc(-c3ccccc3)cc2)C1O (stereo not shown) [compound 182],,,,,,,,,,,,,,,,,,,,,"A7 radioligand binding, percentage inhibition ([1]; [3H]-Naloxone): − (“−” indicates less than 50% inhibition at 10 μM); A4 radioligand binding, percentage inhibition ([2]; [125I]-NDP-αMSH): − (“−” indicates less than 50% inhibition at 10 μM); A1 radioligand binding, percentage inhibition ([3]; [3H]-Bremazocine): − (“−” indicates less than 50% inhibition at 10 μM); A10 radioligand binding, percentage inhibition ([4]; [125I]-Nociceptin): − (“−” indicates less than 50% inhibition at 10 μM); A6 radioligand binding, percentage inhibition ([5]; [125I]-S36057): − (“−” indicates less than 50% inhibition at 10 μM); A3 radioligand binding, percentage inhibition ([6]; [125I]-NDP-αMSH): − (“−” indicates less than 50% inhibition at 10 μM); A9 radioligand binding, percentage inhibition ([7]; [125I]-PYY): − (“−” indicates less than 50% inhibition at 10 μM); A8 radioligand binding, percentage inhibition ([8]; [125I]-Substance P): + (“+” indicates greater than 50% inhibition at 10 μM); A2 radioligand binding, percentage inhibition ([9]; [3H]-Diprenorphine): − (“−” indicates less than 50% inhibition at 10 μM); A5 radioligand binding, percentage inhibition ([10]; [125I]-NDP-αMSH): − (“−” indicates less than 50% inhibition at 10 μM); A11 radioligand binding, percentage inhibition ([11]; [125I]-Urotensin II): − (“−” indicates less than 50% inhibition at 10 μM)"
